Where a SMILES comes first, the peptide text is derived from it.

The subject of one data set is S. aureus R147. The class given is cell-based, Staphylococcus aureus. Here is the method:
(§1) The biological activity of the peptides can be determined by standard methods known to those of skill in the art, such as a “minimal inhibitory concentration” (MIC) assay (see Wu and Hancock (1999) J. Biol Chem. 274:29-35 and Examples section). A MIC assay allows the determination of the lowest concentration of peptide that inhibits the multiplication and growth of mircoorganisms. Changes in the microorganism population are assessed by measuring the optical density (OD) of the population in broth or medium. Peptide MIC's can be determined for a variety of micoorganisms under a variety of conditions. Another assay for the biological activity of the peptides is a “fractional inhibitory concentration” (FIC) assay. This assay is especially useful for determining synergistic effects between the peptides of the invention, and between invention peptides and other compounds such as known antibiotics. A FIC assay employs the strategy of a MIC assay with additional variable(s), e.g., known antibiotics. […] The FIC is calculated by looking at the impact of an antibiotic on the MIC of the peptide and the reciprocal relationship. […] As used herein, FIC can be determined as follows: […]
(§2) MIC Assay p The minimum inhibitory concentrations of (MIC) of several invention peptides were determined using methods described elsewhere (Wu and Hancock, (1999) J. Biol Chem. 274:29-35). […]

A further data set has as its system S. aureus SAP0017. The format is cell-based, Staphylococcus aureus. The method, then: as §1, §2
The test system of the next data set is Human Red Blood Cells. The experiment in a line: Hemolytic assay. The format is cell-based. Here is the method:
The toxicity of invention peptides can be assessed using a hemolytic assay in which the ability of the peptides to lyse human red blood cells is assessed (Zhang et al. (1999) Biochemistry 38:8102-8111; and Examples section).
Hemolytic activity of invention peptides was tested against human red blood cells. Freshly collected human blood treated with heparin was centrifuged to remove the buffy coat, and the erythrocytes thereby obtained were washed three times in saline (0.85% NaCl). Serial dilutions of the peptides in saline were prepared in round-bottomed microtiter plates using total volumes of 100 μl. Red blood cells were diluted with saline to 1/25 of a packed cell volume, and 50 μl of cells were added to each well. Plates, while rocking, were incubated at 37° C., and the concentration of the peptide required for lysis after 4 h was taken as the minimal hemolytic concentration.

For data set [1], the system named is intact cells of E. coli UB1005. The experiment in a line: NPN uptake assay, outer membrane permeabilization. The format is cell-based, Escherichia coli. To be noted: peptide concentration leading to 50% of maximal increase in NPN uptake. The method, then: The outer membrane permeabilization activity of invention peptides was determined by the 1-N-phenylnapthylamine (NPN) uptake assay of Loh et al. ((1984) Antimicor. Agents Chemother. 26:546-551), using intact cells of E. coli UB1005.
The cytoplasmic membrane depolarization activity of the peptides was determined (Wu and Hancock (1999) J. Biol. Chem. 274:29-35) using the membrane potential sensitive dye 3,3-dipropylthiacarbocyanine diSC35 (28) and E. coli DC2. Bacterial cells in mid-log phase were centrifuged, washed in 5 mM HEPES, pH 7.8, and resuspended in the same buffer to an OD600 of 0.05. A stock solution of diSC35 was added to a final concentration of 0.4 μM and quenching was allowed to occur at room temperature for 20-30 min. Then KCl was added to the cell suspension to a final concentration of 100 mM to equilibrate the cytoplasmic and external K^+ concentrations. A 2-mL cell suspension was placed in a 1 cm cuvette and the desired concentration of tested peptide was added. Changes in fluorescence due to the disruption of the membrane potential in the cytoplasmic membrane were continuously recorded using a Perkin-Elmer model 650-10S spectrofluorimeter at an excitation wavelength of 622 nm and an emission wavelength of 670 nm. The concentration of peptide leading to a 50% of maximal increase in NPN uptake was recorded as the P50.
Therefore, an increase in fluorescence in the presence of a peptide indicates the ability of peptide to permeabilize the bacterial outer membrane.

Regarding `CC(C)[C@@H]1NC(=O)[C@H](CCCNC(=N)N)NC(=O)[C@H](Cc2ccccc2)NC(=O)[C@@H](NC(=O)[C@H](Cc2c[nH]c3ccccc23)NC(=O)[C@H](CCCNC(=N)N)NC(=O)[C@@H](N)CCCNC(=N)N)CSSC[C@@H](C(=O)N[C@@H](CCCNC(=N)N)C(N)=O)NC(=O)[C@H](CCCCN)NC(=O)[C@H](CCCNC(=N)N)NC(=O)[C@H](Cc2ccc(O)cc2)NC(=O)[C@@H]2CSSC[C@H](NC1=O)C(=O)N[C@@H](Cc1ccc(O)cc1)C(=O)N[C@@H](CCCNC(=N)N)C(=O)NCC(=O)N[C@@H](Cc1ccccc1)C(=O)N2` [Polyphemusin I] (HELM PEPTIDE1{R.R.W.C.F.R.V.C.Y.R.G.F.C.Y.R.K.C.R.[am]}$PEPTIDE1,PEPTIDE1,4:R3-17:R3|PEPTIDE1,PEPTIDE1,8:R3-13:R3$$$V2.0; N-terminus and C-terminus assumed), the MIC with S. aureus R147 and with S. aureus SAP0017 was 0.5 µg/mL each time. Also, the “minimal hemolytic concentration (printed under MIC head)” value in the data set on Human Red Blood Cells (Human Red Blood Cells, lysis after 4 h at 37° C.) was 21.3 µg/mL. In addition, the “hemolytic activity” value with Human Red Blood Cells (red blood cells) is recorded as “show hemolytic activity”. This compound showed a P50 in data set [1] of 2.8 µg/mL.
